Entries after “also recorded” stand apart in the source; their conditions may differ. Bridge positions count the residues as written; N and C are the ends. Square brackets hold non-standard residues; d marks the D form. I, II: the chains in the order shown. ξ: configuration not given here. ξGly(tetradecyl) = CCCCCCCCCCCCCCC(N)C(=O)O
Columns and labels:
[1] = biological target: Motavizumab (site II specific); assay: ELISA binding of Motavizumab to plate-coated vaccine constructs, one-site model; set-up: species or system human; conditions: serial dilution of antibody on ELISA plates coated with construct; saturation one-site specific binding model; read-out: Mota kD
Procedure: (§1) We further tested the ability of site II and site Ø specific antibodies (Motavizumab and D25, respectively) to recognise the peptides and LCP constructs. Dissociation constant (kD) values were derived from a saturation one-site model. D25 clearly recognised the ØLCP2 (66 ± 14 nM) but not ØLCP1 (Fig. 3A). In comparison, in our analysis D25 bound to the native pre-fusion RSV F (FDs-Cav1) with approximately […] stronger avidity (0.92 ± 0.08 nM). Motavizumab bound IILCP4 with the highest avidity (3.8 ± 0.9 nM), while in our analysis Motavizumab bound FDs-Cav1 with approximately 25 fold stronger avidity (0.15 ± 0.01 nM). Motavizumab also recognised IILCP3, 5, 6 and 7 and IIP5 (Fig. 3B). In general binding avidity was stronger for LCP constructs compared to original peptides.
Figure 3 Binding avidity of monoclonal antibodies against vaccine candidates. Antibody binding assessed by serial dilution of antibody on ELISA plates were coated with vaccine constructs and curve fitting by non-linear regression with a one site specific binding model using Graphpad Prism 7 software. (A) D25 antibody recognised ØLCP2 (kD: 66 ± 014 nM) and to a lesser extent ØP2 (kD: 720 ± 036nM). Binding to FDs Cav1 used as positive control (kD: 0.92 ± 00.08 nM). Motavizumab recognised IILCP4 (kD: 3.8 ± 00.9nM), IILCP5 (kD: 16 ± 03nM), IILCP7 (kD: 17 ± 011nM), IIP5 (kD: 23 ± 05nM) and to a lesser extent IILCP6 (kD: 40 ± 04nM). Binding FDs Cav1 was used as a positive control (kD: 0.15 ± 00.01nM).
(§2) An indirect enzyme-linked immunosorbent assay (ELISA) was used to determine the IgG antibody titre. Peptide antigens were used to coat 96-well plates (TITERTEK®) at a concentration of 5 μg/ml in 20 mM sodium carbonate buffer (pH 9.6), overnight at 4 °C. […] Plates were washed as above and secondary antibody binding was detected with the addition of 3,3′,5,5′-Tetramethylbenzidine (TMB) reagent (Thermo Fisher Scientific) at 50 µl/well. Reactions were stopped with 2M H2SO4 (25 µl/well) and absorbance was read at 450 nm on a SpectraMax® 190 (Molecular Devices) microplate reader.

[2] = test system: relevant antigen (peptide and LCP constructs); assay: IgG antibody titres in sera of immunised mice against the relevant antigen (ELISA); format: in vivo, C57BL/6 mice; conditions: 30 µg s.c. on day 0, 21, 28, 35, LCP in PBS with 1% DMSO, peptides mixed with PADRE and CFA, ELISA against matched antigen
Procedure: A total of 70 female C57BL/6 mice (6–8 weeks old) were purchased from the University of Queensland Biological Resources (UQBR), and housed in the AIBN animal house facility. All experimental procedures performed in this study were carried out in accordance with National Health & Medical Research Council guidelines and approved by The University of Queensland Animal Ethics Committee. Mice (n=5 per group) were injected subcutaneously at the tail base on day 0, 21, 28, 35 (Supplementary, Fig S15) with 30 µg of each construct in phosphate-buffered saline (PBS). 1% DMSO was included for LCP constructs to aid solubility. The negative control group were administered with 50 μl of PBS. Control groups included peptides (ØP1,2 and IIP3–5) physically mixed with PADRE (1:1) and emulsified in a total volume of 50 μl of complete Freund’s adjuvant (CFA)-PBS (1:1) for the first immunisation and PADRE-peptide mixture in PBS for subsequent immunisations. […]
as §2, with “titre.” for “titre. Peptide antigens were used to coat 96-well plates (TITERTEK®) at a concentration of 5 μg/ml in 20 mM sodium carbonate buffer (pH 9.6), overnight at 4 °C.”

[3] = Particle size analysis by dynamic light scattering; format: physicochemical; conditions: 1% DMSO in PBS, 600 µg/ml, 25 °C, 173° backscattering, five replicates
Procedure: Peptides were dissolved in 1% DMSO in phosphate buffered saline (PBS) to a concentration of 600 µg/ml. Particle size was measured using a Zetasizer Nano ZP instrument (Malvern Instrument, UK) via M3-PALS technique with a 173° backscattering angle, at 25 °C. Measurement was performed in five replicates.

[4] = Secondary structure analysis by circular dichroism; format: physicochemical; conditions: 600 µg/ml; spectra not detected
Procedure: Conformational studies of constructs were performed using a J-710 spectropolarimeter (Jasco Corporation, Japan). Samples with 600 µg/ml concentration were transferred into a low volume quartz cuvette with 0.1 cm path length. CD spectra were analysed between 250 nm and 190 nm wavelengths. Measurements were performed in triplicate (reported as an average of readings). Spectral results are reported as mean residual ellipticity (θ) versus wavelength (nm).

[5] = test system: D25 antibody (site Ø specific); assay: ELISA binding of D25 antibody to plate-coated vaccine constructs, one-site model; set-up: species or system human; conditions: construct coated on plate
Procedure: as §1
Figure 3 Binding avidity of monoclonal antibodies against vaccine candidates. Antibody binding assessed by serial dilution of antibody on ELISA plates were coated with vaccine constructs and curve fitting by non-linear regression with a one site specific binding model using Graphpad Prism 7 software. […]
An indirect enzyme-linked immunosorbent assay (ELISA) was used to determine the IgG antibody titre. […] Plates were washed as above and secondary antibody binding was detected with the addition of 3,3′,5,5′-Tetramethylbenzidine (TMB) reagent (Thermo Fisher Scientific) at 50 µl/well. […]

RSV = RSV plaque reduction neutralisation test (PRNT); format: cell-based, RSV (A2); conditions: purified chimeric recombinant anti-F antibody, Vero cells
Procedure: Vero cells were seeded in 96-well tissue culture plates (Nunc®) at 4 × 10^4 cells/well in Opti-MEM supplemented with 3% FBS and 100 U penicillin with 100 μg/ml streptomycin. After overnight growth to allow a confluent monolayer, serial dilutions of virus stock were prepared in Opti-MEM (2% FBS and 100 U penicillin with 100 μg/ml streptomycin) and incubated at 37 °C, 5% CO2 for 1 h. Cell monolayers were inoculated with 50 μL of virus and incubated. After 1 h, the inoculum was replaced with overlay medium (Medium 199 with 3% methylcellulose, 2% FBS, 100 U penicillin with 100 μg/ml streptomycin) and incubated at 37 °C for 72 h. Overlay medium was aspirated and cells were fixed (80% acetone) and immunostained with a recombinant anti-RSV monoclonal antibody followed by IRDye® 800CW goat anti-mouse IgG, LI-COR Biosciences (1:2500). Plaques were read using Odyssey® Imager (LI-COR Biosciences) and titre was recorded as PFU/ml.
PRNT assays were performed as previously described. Briefly, pooled Sera was heat inactivated at 56 °C for 30 min. Dilutions of serum were combined with 50 PFU of RSV in serum free Opti-MEM and incubated at 37 °C for 1 h before applying to confluent monolayers of Vero cells in TC96-well plates. Cells were incubated with the serum-virus mixture at 37 °C for 1 h. Inoculum was aspirated and overlay medium was added and cells were incubated at 37 °C for 72 h. […]

Substance | Kd [1] [nM] | antigen specific IgG response in sera (in words) [2] | Diameter DLS [3] [nm] | other results
I: Ac-LTNSELLSLINDMPITNDQKKLMSNNVQIVRQQS / II: Ac-AKFVAAWTLKAAAKSS[ξGly(tetradecyl)][ξGly(tetradecyl)]-NH2 (amide I:C-II:14) [IILCP5] | 16 ± 3 | higher specific IgG titres; also recorded: robust antibody response | 181±25 | 
I: Ac-[ξGly(tetradecyl)][ξGly(tetradecyl)]LTNSELLSLINDMPITNDQKKLMSNNVQIVRQQS / II: Ac-AKFVAAWTLKAAAKSS[ξGly(tetradecyl)][ξGly(tetradecyl)]-NH2 (amide I:C-II:14) [IILCP7] | 17 ± 11 |  | 261±20 | aggregation under CD measurement condition [4]: aggregation
Ac-LTNSELLSLINDMPITNDQKKLMSNNVQIVRQQS-NH2 [IIP5] | 23 ± 5 | higher specific IgG titres; also recorded: strong response |  | 
KNYIDKQLLPIVNKQS [ØP1] |  |  |  | recognition by D25 (in words) [5]: Neither ØP1 nor ØLCP1 bound to D25
Motavizumab |  |  |  | neutralisation of RSV by purified antibody (in words) (RSV): potent neutralisation

From article PMC5593926, “Induction of high titred, non-neutralising antibodies by self-adjuvanting peptide epitopes derived from the respiratory syncytial virus fusion protein” (Scientific Reports, 2017)
